Test results published in patent EP4790066A1, “GLP-1R/GIPR/GCGR TRIPLE AGONIST ANALOGUE AND USE THEREOF” (Shenzhen Bay Laboratory, priority 2023, dated 2025).

What was measured:
Assay type in all cases: cell-based
GIPR [1] = molecular target: T1, GIPR (Homo sapiens, UniProt P48546); test: cAMP method (HTRF cAMP detection kit), HEK293/pGM-CREB-L-Luc/GIP pool; details: read-out: EC50 (pM) for each receptor GIPR
T1 construct: expressed in transfected cells
T1 sequence (P48546 22-466): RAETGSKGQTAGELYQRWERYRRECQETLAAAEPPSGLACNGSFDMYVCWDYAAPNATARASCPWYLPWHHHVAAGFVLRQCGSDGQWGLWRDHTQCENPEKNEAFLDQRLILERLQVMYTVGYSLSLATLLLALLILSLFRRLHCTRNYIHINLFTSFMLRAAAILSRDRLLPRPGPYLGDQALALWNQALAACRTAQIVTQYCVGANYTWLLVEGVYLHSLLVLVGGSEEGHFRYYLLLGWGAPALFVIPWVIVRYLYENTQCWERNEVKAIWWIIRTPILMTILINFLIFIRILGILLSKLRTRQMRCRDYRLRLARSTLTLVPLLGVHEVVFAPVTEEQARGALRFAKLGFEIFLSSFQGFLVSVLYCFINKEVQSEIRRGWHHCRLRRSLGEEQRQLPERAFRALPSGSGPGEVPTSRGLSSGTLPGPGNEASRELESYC
Experimental: (§1) 2. Insulinotropic analogues can bind to target receptors on the cell membrane, activate the receptors, and induce release. The activity of the test substance can be determined using the HTRF method with a cAMP detection kit. Therefore, the cAMP method can be used to detect the target peptide derivatives (or polypeptide derivatives, i.e., TG1-TG86) prepared in Example 1 and Example 2. […] The test cell line was selected, treated with cAMP-specific trypsin for digestion. 3 mL of serum-free DMEM culture medium was added, and the cells were pipetted, resuspended, and counted. 5 µL of IBMX (prepared with serum-free DMEM medium, 0.5 mM) and test cells (5 µL/7500 cells/well) were added in a 384-well plate sequentially. The plate was incubated at 37°C under 5% CO2 for 30 min, followed by the addition of cAMP-d2 (5 µL, 1x) and Anti-cAMP-Cryptate (5 µL, 1x). The mixture was kept at room temperature for 1 h, after which the HTRF value was measured using a chemiluminescent microplate reader, and the determination result was recorded. […] Table 4: EC50 values for target peptide derivatives

GIPR [2] = molecular target: T1, GIPR; test: CreLuc method (CRE-luciferase reporter), HEK293/pGM-CREB-L-Luc/GIPR pool; details: 6 h incubation, read-out: EC50 (pM) for each receptor GIPR
In short: (§2)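 Stable HEK293 pools co-expressing each receptor with a CRE-luciferase reporter were plated at 20,000 cells/well in freestyle medium and treated with compound dilution series for 6 h at 37 °C. Luminescence was read with ONE-GLO to derive EC50.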

GLP-1R [3] = molecular target: T2, GLP-1R (Homo sapiens, UniProt P43220); test: cAMP method (HTRF cAMP detection kit), HEK293/pGM-CREB-L-Luc/GLP-1 pool; details: read-out: EC50 (pM) for each receptor GLP-1R
T2 construct: expressed in transfected cells
T2 sequence (P43220 24-463, species assumed): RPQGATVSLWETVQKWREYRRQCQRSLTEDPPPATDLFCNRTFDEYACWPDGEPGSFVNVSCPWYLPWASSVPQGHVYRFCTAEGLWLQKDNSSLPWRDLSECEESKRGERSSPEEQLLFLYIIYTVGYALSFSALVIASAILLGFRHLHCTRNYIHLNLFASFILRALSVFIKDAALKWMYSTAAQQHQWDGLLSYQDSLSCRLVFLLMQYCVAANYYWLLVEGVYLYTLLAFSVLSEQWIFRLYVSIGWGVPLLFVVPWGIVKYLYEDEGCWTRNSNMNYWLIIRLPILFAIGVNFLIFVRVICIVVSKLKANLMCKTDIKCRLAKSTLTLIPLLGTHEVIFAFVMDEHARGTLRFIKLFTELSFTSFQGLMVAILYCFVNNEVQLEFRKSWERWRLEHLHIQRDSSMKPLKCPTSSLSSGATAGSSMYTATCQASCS
Experimental: as §1

GCGR [4] = molecular target: T3, GCGR (Homo sapiens, UniProt P47871); test: CreLuc method (CRE-luciferase reporter), 293HEK/pGM-CREB-L-Luc/GCGR pool; details: 6 h incubation, read-out: EC50 (pM) for each receptor GCGR
T3 construct: expressed in transfected cells
T3 sequence (P47871 26-477, species assumed): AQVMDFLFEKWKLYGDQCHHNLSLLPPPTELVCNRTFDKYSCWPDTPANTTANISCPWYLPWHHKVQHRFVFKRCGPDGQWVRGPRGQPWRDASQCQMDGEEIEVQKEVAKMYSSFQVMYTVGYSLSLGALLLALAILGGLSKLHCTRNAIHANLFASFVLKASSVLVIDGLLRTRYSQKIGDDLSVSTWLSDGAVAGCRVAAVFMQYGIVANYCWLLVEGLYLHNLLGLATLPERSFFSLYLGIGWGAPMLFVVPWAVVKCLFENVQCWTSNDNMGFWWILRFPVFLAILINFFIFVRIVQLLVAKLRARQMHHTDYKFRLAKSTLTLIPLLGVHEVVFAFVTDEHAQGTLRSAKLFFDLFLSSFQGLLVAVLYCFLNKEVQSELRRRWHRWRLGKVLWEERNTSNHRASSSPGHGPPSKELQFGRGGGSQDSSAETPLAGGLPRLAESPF
In short: as §2

GLP-1R [5] = molecular target: T2, GLP-1R; test: CreLuc method (CRE-luciferase reporter), HEK293/pGM-CREB-L-Luc/GLP-1R pool; details: 6 h incubation, read-out: EC50 (pM) for each receptor GLP-1R
In short: as §2

GCGR [6] = molecular target: T3, GCGR; test: cAMP method (HTRF cAMP detection kit), HEK293/pGM-CREB-L-Luc/GCG pool; details: read-out: EC50 (pM) for each receptor GCGR
Experimental: as §1

Compound | EC50 (GIPR [1]) [pM] | EC50 (GIPR [2]) [pM] | EC50 (GLP-1R [3]) [pM] | EC50 (GCGR [4]) [pM] | EC50 (GLP-1R [5]) [pM] | EC50 (GCGR [6]) [pM]
CC[C@H](C)[C@@H]1NC(=O)[C@H](Cc2ccccc2)NC(=O)[C@@H](NC(=O)C(C)(C)NC(=O)[C@H](CCC(N)=O)NC(=O)[C@H](C)NC(=O)[C@H](CCCCNC(C)=O)NC(=O)[C@H](CCCCN)NC(=O)[C@H](CC(=O)O)NC(=O)[C@H](CC(C)C)NC(=O)[C@](C)(CC(C)C)NC(=O)[C@@H](NC(=O)[C@H](CO)NC(=O)[C@H](Cc2ccc(O)cc2)NC(=O)[C@H](CC(=O)O)NC(=O)[C@H](CO)NC(=O)[C@@H](NC(=O)[C@H](Cc2ccccc2)NC(=O)[C@@H](NC(=O)CNC(=O)[C@H](CCC(N)=O)NC(=O)C(C)(C)NC(=O)[C@@H](N)Cc2c[nH]cn2)[C@@H](C)O)[C@@H](C)O)[C@@H](C)CC)CSCC(=O)NCCN(C(=O)CCC(=O)NCCOCCOCC(=O)NCCOCCOCC(=O)NCCCC[C@H](NC(=O)CCCCCCCCCCCCCCCCCCC(=O)O)C(=O)O)CCNC(=O)CSC[C@@H](C(=O)NCC(=O)NCC(=O)N2CCC[C@H]2C(=O)N[C@@H](CO)C(=O)N[C@@H](CO)C(=O)NCC(=O)N[C@@H](C)C(=O)N2CCC[C@H]2C(=O)N2CCC[C@H]2C(=O)N2CCC[C@H]2C(=O)N[C@@H](CO)C(N)=O)NC(=O)[C@H](CC(C)C)NC(=O)[C@H](CC(C)C)NC(=O)[C@H](Cc2ccc(O)cc2)NC(=O)[C@H](CCC(=O)O)NC1=O [TG18] | 1.7 | 25.9 | 1.4 | 802 | 66.9 | 94.4
CC[C@H](C)[C@@H]1NC(=O)[C@H](Cc2ccccc2)NC(=O)[C@@H](NC(=O)C(C)(C)NC(=O)[C@H](CCC(N)=O)NC(=O)[C@H](C)NC(=O)[C@H](CCC(N)=O)NC(=O)[C@H](CCCCN)NC(=O)[C@H](CC(=O)O)NC(=O)[C@H](CC(C)C)NC(=O)[C@](C)(CC(C)C)NC(=O)[C@@H](NC(=O)[C@H](CO)NC(=O)[C@H](Cc2ccc(O)cc2)NC(=O)[C@H](CC(=O)O)NC(=O)[C@H](CO)NC(=O)[C@@H](NC(=O)[C@H](Cc2ccccc2)NC(=O)[C@@H](NC(=O)CNC(=O)[C@H](CCC(N)=O)NC(=O)C(C)(C)NC(=O)[C@@H](N)Cc2ccc(O)cc2)[C@@H](C)O)[C@@H](C)O)[C@@H](C)CC)CSCC(=O)NCCN(C(=O)CCC(=O)NCCOCCOCC(=O)NCCOCCOCC(=O)NCCCC[C@H](NC(=O)CCCCCCCCCCCCCCCCCCC(=O)O)C(=O)O)CCNC(=O)CSC[C@@H](C(=O)NCC(=O)NCC(=O)N2CCC[C@H]2C(=O)N[C@@H](CO)C(=O)N[C@@H](CO)C(=O)NCC(=O)N[C@@H](C)C(=O)N2CCC[C@H]2C(=O)N2CCC[C@H]2C(=O)N2CCC[C@H]2C(=O)N[C@@H](CO)C(N)=O)NC(=O)[C@H](CC(C)C)NC(=O)[C@H](CC(C)C)NC(=O)[C@H](Cc2ccc(O)cc2)NC(=O)[C@H](CCC(=O)O)NC1=O [TG30] | 3.2 | 45.3 | 2.5 | 347 | 47.8 | 28.7
CC[C@H](C)[C@@H]1NC(=O)[C@H](Cc2ccccc2)NC(=O)[C@@H](NC(=O)C(C)(C)NC(=O)[C@H](CCC(N)=O)NC(=O)[C@H](C)NC(=O)[C@H](CCCCNC(C)=O)NC(=O)[C@H](CCCCN)NC(=O)[C@H](CC(=O)O)NC(=O)[C@H](CCC(C)C)NC(=O)[C@](C)(CC(C)C)NC(=O)[C@@H](NC(=O)[C@H](CO)NC(=O)[C@H](Cc2ccc(O)cc2)NC(=O)[C@H](CC(=O)O)NC(=O)[C@H](CO)NC(=O)[C@@H](NC(=O)[C@H](Cc2ccccc2)NC(=O)[C@@H](NC(=O)CNC(=O)[C@H](CCC(N)=O)NC(=O)C(C)(C)NC(=O)[C@@H](N)Cc2ccc(O)cc2)[C@@H](C)O)[C@@H](C)O)[C@@H](C)CC)CSCC(=O)NCCN(C(=O)CCC(=O)NCCOCCOCC(=O)NCCOCCOCC(=O)NCCCC[C@H](NC(=O)CCCCCCCCCCCCCCCCCCC(=O)O)C(=O)O)CCNC(=O)CSC[C@@H](C(=O)NCC(=O)NCC(=O)N2CCC[C@H]2C(=O)N[C@@H](CO)C(=O)N[C@@H](CO)C(=O)NCC(=O)N[C@@H](C)C(=O)N2CCC[C@H]2C(=O)N2CCC[C@H]2C(=O)N2CCC[C@H]2C(=O)N[C@@H](CO)C(N)=O)NC(=O)[C@H](CC(C)C)NC(=O)[C@H](CC(C)C)NC(=O)[C@H](Cc2ccc(O)cc2)NC(=O)[C@H](CCC(=O)O)NC1=O [TG25] |  | 24.4 | 2.2 | 311 | 54 | 65.1
CC[C@H](C)[C@@H]1NC(=O)[C@H](Cc2ccccc2)NC(=O)[C@@H](NC(=O)C(C)(C)NC(=O)[C@H](CCC(N)=O)NC(=O)[C@H](C)NC(=O)[C@H](CCCCNC(C)=O)NC(=O)[C@H](CCCCN)NC(=O)[C@H](CC(=O)O)NC(=O)[C@H](CC(C)C)NC(=O)[C@](C)(CC(C)C)NC(=O)[C@@H](NC(=O)[C@H](CO)NC(=O)[C@H](Cc2ccc(O)cc2)NC(=O)[C@H](CC(=O)O)NC(=O)[C@H](CO)NC(=O)[C@@H](NC(=O)[C@H](Cc2ccccc2)NC(=O)[C@@H](NC(=O)CNC(=O)[C@H](CCC(N)=O)NC(=O)C2(NC(=O)[C@@H](N)Cc3ccc(O)cc3)CCC2)[C@@H](C)O)[C@@H](C)O)[C@@H](C)CC)CSCC(=O)NCCN(C(=O)CCC(=O)NCCOCCOCC(=O)NCCOCCOCC(=O)NCCCC[C@H](NC(=O)CCCCCCCCCCCCCCCCCCC(=O)O)C(=O)O)CCNC(=O)CSC[C@@H](C(=O)NCC(=O)NCC(=O)N2CCC[C@H]2C(=O)N[C@@H](CO)C(=O)N[C@@H](CO)C(=O)NCC(=O)N[C@@H](C)C(=O)N2CCC[C@H]2C(=O)N2CCC[C@H]2C(=O)N2CCC[C@H]2C(=O)N[C@@H](CO)C(N)=O)NC(=O)[C@H](CC(C)C)NC(=O)[C@H](CC(C)C)NC(=O)[C@H](Cc2ccc(O)cc2)NC(=O)[C@H](CCC(=O)O)NC1=O [TG43] | 6.4 | 13.6 | 1.3 | 78.7 | 57.1 | 3.8
CC[C@H](C)[C@@H]1NC(=O)[C@H](Cc2ccccc2)NC(=O)[C@@H](NC(=O)C(C)(C)NC(=O)[C@H](CCC(N)=O)NC(=O)[C@H](C)NC(=O)[C@H](CCCCNC(C)=O)NC(=O)[C@H](CCCCN)NC(=O)[C@H](CC(=O)O)NC(=O)[C@H](CC(C)C)NC(=O)[C@](C)(CC(C)C)NC(=O)[C@@H](NC(=O)[C@H](CO)NC(=O)[C@H](Cc2ccc(O)cc2)NC(=O)[C@H](CC(=O)O)NC(=O)[C@H](CO)NC(=O)[C@@H](NC(=O)[C@H](Cc2ccccc2)NC(=O)[C@@H](NC(=O)CNC(=O)[C@H](CCC(N)=O)NC(=O)C(C)(C)NC(=O)[C@@H](N)Cc2ccc(O)cc2)[C@@H](C)O)[C@@H](C)O)[C@@H](C)CC)CSCC(=O)NCCN(C(=O)CCC(=O)NCCOCCOCC(=O)NCCOCCOCC(=O)NCCCC[C@H](NC(=O)CCCCCCCCCCCCCCCCCCC(=O)O)C(=O)O)CCNC(=O)CSC[C@@H](C(=O)NCC(=O)NCC(=O)N2CCC[C@H]2C(=O)N[C@@H](CO)C(=O)N[C@@H](CO)C(=O)NCC(=O)N[C@@H](C)C(=O)N2CCC[C@H]2C(=O)N2CCC[C@H]2C(=O)N2CCC[C@H]2C(=O)N[C@@H](CO)C(N)=O)NC(=O)[C@H](CC(C)C)NC(=O)[C@H](CC(C)C)NC(=O)[C@H](Cc2ccc(O)cc2)NC(=O)[C@H](CCC(=O)O)NC1=O [TG15] | 3.3 | 85.6 | 1.9 | 329 | 116 | 40.3
